In brackets after ≈: the same amount, converted by molar mass.
Assays:
[1] = target: Prothrombin (Homo sapiens, UniProt P00734); assay: Inhibition of thrombin (unknown origin) by fluorescence assay
[2] = target: Coagulation factor X (Homo sapiens, UniProt P00742); assay: Inhibition of factor 10a (unknown origin) using CH3OCO-D-CHA-Gly-Arg-pNA.AcoH as substrate
[3] = target: Trypsin (Homo sapiens, UniProt P07477+P07478+P35030); assay: Inhibition of trypsin (unknown origin) by fluorescence assay; format: protein assay
[4] = target: Urokinase-type plasminogen activator (Homo sapiens, UniProt P00749); assay: Inhibition of uPA (unknown origin) using L-PyroGlu-Gly-Arg-pNA.HCl as substrate
[5] = target: T1, Suppressor of tumorigenicity 14 protein (Homo sapiens, UniProt Q9Y5Y6); assay: Inhibition of matriptase-SP1 (615 to 855) (unknown origin) expressed in Escherichia coli BL21(DE3) using Boc-Gln-Ala-Arg-7-amido-4-methyl coumarin hydrobromide as substrate by fluorescence assay
T1 sequence (Q9Y5Y6 whole entry): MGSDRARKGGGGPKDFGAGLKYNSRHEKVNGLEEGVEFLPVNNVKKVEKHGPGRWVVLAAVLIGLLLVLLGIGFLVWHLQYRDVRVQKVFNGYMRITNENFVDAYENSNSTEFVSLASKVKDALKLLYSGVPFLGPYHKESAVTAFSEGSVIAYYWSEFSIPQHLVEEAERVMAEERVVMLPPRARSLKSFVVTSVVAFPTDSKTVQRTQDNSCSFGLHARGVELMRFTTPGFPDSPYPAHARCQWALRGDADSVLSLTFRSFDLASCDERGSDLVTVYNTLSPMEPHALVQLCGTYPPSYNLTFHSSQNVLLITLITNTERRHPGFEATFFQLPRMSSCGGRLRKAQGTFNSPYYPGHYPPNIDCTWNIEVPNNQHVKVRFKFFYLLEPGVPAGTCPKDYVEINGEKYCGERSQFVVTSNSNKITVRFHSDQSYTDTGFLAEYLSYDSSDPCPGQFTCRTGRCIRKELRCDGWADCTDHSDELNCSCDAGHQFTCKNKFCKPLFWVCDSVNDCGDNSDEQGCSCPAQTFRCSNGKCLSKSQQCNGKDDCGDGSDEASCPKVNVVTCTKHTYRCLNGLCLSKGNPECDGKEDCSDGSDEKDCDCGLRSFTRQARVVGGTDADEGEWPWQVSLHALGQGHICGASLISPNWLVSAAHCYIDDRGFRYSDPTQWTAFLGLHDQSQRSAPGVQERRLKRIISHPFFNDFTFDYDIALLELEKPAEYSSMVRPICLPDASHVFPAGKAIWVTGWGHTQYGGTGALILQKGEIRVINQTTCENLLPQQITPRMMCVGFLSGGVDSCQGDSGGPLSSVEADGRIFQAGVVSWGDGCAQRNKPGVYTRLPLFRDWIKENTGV

[6] = system: PC-3; assay: Antiinvasive activity against human PC3 cells at 10 uM incubated overnight followed by fibronectin and HGF addition measured after 48 hrs by calcein AM assay relative to control; format: functional; conditions: PC-3, 48 h
[7] = system: DU-145; assay: Cytotoxicity against human DU145 cells at 10 uM after 72 hrs by calcein AM assay relative to control; format: functional
[8] = system: DU-145; assay: Antiinvasive activity against human DU145 cells at 10 uM incubated overnight followed by fibronectin addition measured after 48 hrs by calcein AM assay relative to control; format: functional; conditions: DU-145, 48 h
[9] = Kinetic aqueous solubility of the compound at pH 7.4 after 16 hrs by shake flask method; format: physicochemical; conditions: read-out: Kinetic_solubility
[10] = system: DU-145; assay: Antimigratory activity against human DU145 cells at 10 uM incubated overnight followed by fibronectin addition measured after 24 hrs by calcein AM assay relative to control; format: functional; conditions: DU-145, 24 h
[11] = system: PC-3; assay: Antimigratory activity against human PC3 cells at 10 uM incubated overnight followed by fibronectin and HGF addition measured after 24 hrs by calcein AM assay relative to control; format: functional; conditions: PC-3, 24 h
[12] = system: PC-3; assay: Cytotoxicity against human PC3 cells at 10 uM after 72 hrs by calcein AM assay relative to control; format: functional
[13] = Metabolic stability in mouse liver microsomes assessed as compound remaining at 1 uM after 40 mins by LC-MS/MS analysis; format: ADME, Microsome; conditions: read-out: Stability
[14] = Metabolic stability in mouse liver microsomes assessed as compound remaining at 1 uM after 20 mins by LC-MS/MS analysis; format: ADME, Microsome; conditions: read-out: Stability

Chain of Coagulation factor X (P00742 41-179 limits assumed): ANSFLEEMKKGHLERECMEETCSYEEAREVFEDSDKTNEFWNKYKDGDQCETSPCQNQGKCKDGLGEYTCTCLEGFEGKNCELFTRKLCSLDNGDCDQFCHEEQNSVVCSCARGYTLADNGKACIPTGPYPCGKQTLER
Chain of Coagulation factor X (P00742 235-488 limits assumed): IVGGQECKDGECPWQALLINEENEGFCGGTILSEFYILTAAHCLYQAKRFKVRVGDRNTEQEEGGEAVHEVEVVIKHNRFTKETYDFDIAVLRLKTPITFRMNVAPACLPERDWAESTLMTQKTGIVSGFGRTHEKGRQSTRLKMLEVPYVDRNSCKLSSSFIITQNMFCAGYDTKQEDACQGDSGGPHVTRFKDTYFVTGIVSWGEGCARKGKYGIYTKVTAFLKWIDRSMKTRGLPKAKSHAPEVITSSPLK

Structure (SMILES)	Ki [1] [nM]	Ki [2] [nM]	Ki [3] [nM]	Ki [4] [nM]	Ki [5] [nM]	solubility kinetic at 16 h [9] [µM]	remaining at 40 min, 1 µM [13] [%]	remaining at 20 min, 1 µM [14] [%]	inhibition at 10 µM [6] [%]	Activity [7] [%]	inhibition at 10 µM [8] [%]	inhibition at 10 µM [10] [%]	inhibition at 10 µM [11] [%]	Activity [12] [%]
N=C(N)c1ccc(Oc2ccc(N)c(Oc3ccc(C(=N)N)cc3)n2)cc1	4400	1200	5500	> 10000	2900	–	–	–	–	–	–	–	–	–
N=C(N)c1ccc(Oc2ccc(C(=O)N[C@H]3CC[C@H](N)CC3)c(Oc3ccc(C(=N)N)cc3)n2)cc1	3400	600	2000	> 10000	500	–	–	–	–	–	–	–	–	–
N=C(N)c1ccc(Oc2ccc(C(=O)NC3CCN(C(=O)CCN)CC3)c(Oc3ccc(C(=N)N)cc3)n2)cc1	3600	2300	–	> 10000	600	–	–	–	–	–	–	–	–	–
N=C(N)c1ccccc1 [BENZAMIDINE]	–	–	–	–	400000	–	–	–	–	–	–	–	–	–
N=C(N)c1ccc(Oc2cccc(Oc3ccc(C(=N)N)cc3)n2)cc1	600	–	2800	–	9600	–	–	–	–	–	–	–	–	–
N=C(N)c1ccc(Oc2ccc(NS(=O)(=O)c3cc(F)cc(F)c3)c(Oc3ccc(C(=N)N)cc3)n2)cc1	–	–	–	> 10000	1200	–	–	–	–	–	–	–	–	–

These reach a lower Ki [5]. Values come first.

Ki [1] [nM]	Ki [2] [nM]	Ki [3] [nM]	Ki [4] [nM]	Ki [5] [nM]	solubility kinetic at 16 h [9] [µM]	remaining at 40 min, 1 µM [13] [%]	remaining at 20 min, 1 µM [14] [%]	Structure (SMILES)	inhibition at 10 µM [6] [%]	Activity [7] [%]	inhibition at 10 µM [8] [%]	inhibition at 10 µM [10] [%]	inhibition at 10 µM [11] [%]	Activity [12] [%]
–	–	–	> 10000	200	–	–	–	N=C(N)c1ccc(Oc2ccc(NS(=O)(=O)c3cccc4cccnc34)c(Oc3ccc(C(=N)N)cc3)n2)cc1	–	–	–	–	–	–
5800	300	1300	> 10000	40	191 (≈ 106 µg/mL)	73.2	76.4	N=C(N)c1ccc(Oc2ccc(NS(=O)(=O)c3ccc4ccccc4c3)c(Oc3ccc(C(=N)N)cc3)n2)cc1	42	20	47	59	39	20
> 2500	200	2200	> 10000	100	–	–	–	N=C(N)c1ccc(Oc2cc(C(=O)N3CCC(CCN)CC3)cc(Oc3ccc(C(=N)N)cc3)n2)cc1	–	–	–	–	–	–
2500	400	2400	> 10000	40	196 (≈ 95.6 µg/mL)	95.6	100	N=C(N)c1ccc(Oc2cc(C(=O)N[C@H]3CC[C@H](N)CC3)cc(Oc3ccc(C(=N)N)cc3)n2)cc1	42	0	69	65	53	1
2900	100	–	> 10000	40	–	–	–	N=C(N)c1ccc(Oc2cc(C(=O)NC3CCN(CCCN)CC3)cc(Oc3ccc(C(=N)N)cc3)n2)cc1	–	–	–	–	–	–
2100	300	300	> 10000	400	–	–	–	N=C(N)c1ccc(Oc2ccc(C(=O)NCCCN)c(Oc3ccc(C(=N)N)cc3)n2)cc1	–	–	–	–	–	–
> 2500	1500	3600	> 10000	200	–	–	–	N=C(N)c1ccc(Oc2ccc(C(=O)N3CCC(CCN)CC3)c(Oc3ccc(C(=N)N)cc3)n2)cc1	–	–	–	–	–	–
4100	300	1400	> 10000	200	194 (≈ 101 µg/mL)	86.5	89	N=C(N)c1ccc(Oc2ccc(NS(=O)(=O)c3ccc(F)cc3)c(Oc3ccc(C(=N)N)cc3)n2)cc1	60	0	61	69	65	0

Reference: ChEMBL document CHEMBL3098065, “Discovery of Pyridyl Bis(oxy)dibenzimidamide Derivatives as Selective Matriptase Inhibitors” (ACS Med Chem Lett, 2013)
